Patent US10597388B2, “Pyridazinone herbicides” (FMC CORPORATION, priority 2014, dated 2020)

Legend:
Assay type in all cases: in vivo
corn (Zea mays) = assay: Test A greenhouse herbicide test, pre- and postemergence; details: Postemergence
In short: (§1)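 Visual injury ratings, 0 (no effect) to 100 (complete control), versus untreated plants after roughly 10 d in a greenhouse. Compounds, formulated in a surfactant-containing non-phytotoxic solvent, were sprayed on loam–sand soil after sowing (pre) or on one- to two-leaf plants 2–10 cm tall (post).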

[1] = test system: foxtail, giant (giant foxtail, Setaria faberii); assay: as above
In short: as §1

kochia (Kochia scoparia) = assay: as above
In short: as §1

[2] = test system: ragweed (common ragweed, Ambrosia elatior); assay: as above
In short: as §1

[3] = test system: ryegrass, Italian (Italian ryegrass, Lolium multiflorum); assay: as above
In short: as §1

[4] = test system: wheat (Triticum aestivum); assay: as above; details: Postemergence
In short: as §1

[5] = test system: blackgrass (Alopecurus myosuroides); assay: Test A greenhouse herbicide test, postemergence
In short: (§2)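 Scores are visual injury ratings from 0 (no effect) to 100 (complete control) versus untreated plants, taken roughly 10 d after treatment in the greenhouse. Treatment was postemergence, on one- to two-leaf plants 2–10 cm high growing in a loam soil/sand mix.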

[6] = test system: galium (catchweed bedstraw, Galium aparine); assay: Test A greenhouse herbicide test, postemergence
In short: as §2

[7] = test system: galium (catchweed bedstraw, Galium aparine); assay: Test C greenhouse herbicide test, pre- and postemergence
In short: (§3)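 Greenhouse pots; pre-em on seeded loam:sand blend, post-em on 2–18 cm plants (1–4 leaf) in sphagnum peat/vermiculite medium. Formulation: non-phytotoxic solvent + surfactant. Read-out: visual % control (0–100) vs controls at 13–15 d.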

[8] = test system: ragweed (common ragweed, Ambrosia elatior); assay: as above
In short: as §3

[9] = test system: ryegrass, Italian (Italian ryegrass, Lolium multiflorum); assay: as above
In short: as §3

soybean (Glycine max) = assay: as above
In short: as §3

[10] = 125 g ai/ha, 0 to 100 scale, 0 no effect, 100 complete control
[11] = 500 g ai/ha, visual rating after approx. 10 d, 0 to 100 scale (0 no effect, 100 complete control)
[12] = Postemergence, 125 g ai/ha, 0 to 100 scale, 0 no effect, 100 complete control
[13] = Postemergence, 500 g ai/ha, visual rating after approx. 10 d, 0 to 100 scale (0 no effect, 100 complete control)
[14] = Preemergence, 125 g ai/ha, visual injury rating, 0 to 100 scale (0 no effect, 100 complete control), approx. 10 d
[15] = Preemergence, 500 g ai/ha, 0 to 100 scale where 0 is no effect and 100 is complete control
[16] = Postemergence, 31 g ai/ha, scale 0 to 100 (0 no effect, 100 complete control)
[17] = Postemergence, 62 g ai/ha, 0 to 100 scale (0 no effect, 100 complete control)
[18] = Postemergence, 250 g ai/ha, scale 0 to 100, 0 is no effect, 100 is complete control
[19] = postemergence, 125 g ai/ha, scale 0 to 100, 0 no effect, 100 complete control
[20] = Preemergence, 31 g ai/ha, scale 0 to 100, 0 is no effect, 100 is complete control
[21] = Preemergence, 62 g ai/ha, scale 0 to 100, 0 is no effect, 100 is complete control
[22] = Preemergence, 125 g ai/ha, scale 0 to 100, 0 is no effect, 100 is complete control

SMILES: CC(=O)Oc1c(C)nn(C)c(=O)c1-c1c([N+](=O)[O-])ccc2ccccc12 [Compound 164]
- Plant response rating, Corn (corn (Zea mays); [10]): 0
- Plant response rating, Corn (corn (Zea mays); [11]): 20
- Plant response rating, Foxtail, Giant [1, 12]: 20
- Plant response rating, Foxtail, Giant [1, 13]: 30
- Plant response rating, Foxtail, Giant [1, 14]: 10
- Plant response rating, Foxtail, Giant [1, 15]: 40
- Plant response rating, Kochia (kochia (Kochia scoparia); [12]): 60
- Plant response rating, Kochia (kochia (Kochia scoparia); [13]): 90
- Plant response rating, Kochia (kochia (Kochia scoparia); [14]): 60
- Plant response rating, Kochia (kochia (Kochia scoparia); [15]): 100
- Plant response rating, Ragweed [2, 12]: 70
- Plant response rating, Ragweed [2, 13]: 100
- Plant response rating, Ragweed [2, 14]: 50
- Plant response rating, Ragweed [2, 15]: 90
- Plant response rating, Ryegrass, Italian [3, 12]: 70
- Plant response rating, Ryegrass, Italian [3, 13]: 90
- Plant response rating, Ryegrass, Italian [3, 14]: 60
- Plant response rating, Ryegrass, Italian [3, 15]: 100
- Plant response rating, Wheat [4, 10]: 0
- Plant response rating, Wheat [4, 11]: 0
- Plant response rating, Blackgrass [5, 10]: 20
- Plant response rating, Blackgrass [5, 11]: 40
- Plant response rating, Galium [6, 10]: 80
- Plant response rating, Galium [6, 11]: 100
- Plant response rating, Galium [7, 16]: 90
- Galium plant response rating [7, 17]: 95
- Plant response rating, Galium [7, 18]: 100
- Galium plant response rating [7, 19]: 100
- Plant response rating, Ragweed [8, 16]: 70
- Ragweed plant response rating [8, 17]: 80
- Plant response rating, Ragweed [8, 18]: 90
- Ragweed plant response rating [8, 19]: 85
- Plant response rating, Ryegrass, Italian [9, 16]: 50
- Ryegrass, Italian plant response rating [9, 17]: 60
- Plant response rating, Ryegrass, Italian [9, 18]: 85
- Ryegrass, Italian plant response rating [9, 19]: 80
- Plant response rating, Soybean (soybean (Glycine max); [16]): 0
- Soybean plant response rating (soybean (Glycine max); [17]): 0
- Plant response rating, Soybean (soybean (Glycine max); [18]): 5
- Soybean plant response rating (soybean (Glycine max); [19]): 10

SMILES: CSCC(=O)Oc1c(C)nn(C)c(=O)c1-c1cccc2ccccc12 [Compound 171]
- Plant response rating, Corn (corn (Zea mays); [10]): 20
- Plant response rating, Corn (corn (Zea mays); [11]): 40
- Plant response rating, Foxtail, Giant [1, 12]: 40
- Plant response rating, Foxtail, Giant [1, 13]: 90
- Plant response rating, Foxtail, Giant [1, 14]: 50
- Plant response rating, Foxtail, Giant [1, 15]: 100
- Plant response rating, Kochia (kochia (Kochia scoparia); [12]): 100
- Plant response rating, Kochia (kochia (Kochia scoparia); [13]): 100
- Plant response rating, Kochia (kochia (Kochia scoparia); [14]): 100
- Plant response rating, Kochia (kochia (Kochia scoparia); [15]): 100
- Plant response rating, Ragweed [2, 12]: 100
- Plant response rating, Ragweed [2, 13]: 100
- Plant response rating, Ragweed [2, 14]: 70
- Plant response rating, Ragweed [2, 15]: 90
- Plant response rating, Ryegrass, Italian [3, 12]: 100
- Plant response rating, Ryegrass, Italian [3, 13]: 100
- Plant response rating, Ryegrass, Italian [3, 14]: 100
- Plant response rating, Ryegrass, Italian [3, 15]: 100
- Plant response rating, Wheat [4, 10]: 30
- Plant response rating, Wheat [4, 11]: 70
- Plant response rating, Blackgrass [5, 10]: 80
- Plant response rating, Blackgrass [5, 11]: 90
- Plant response rating, Galium [6, 10]: 90
- Plant response rating, Galium [6, 11]: 100
- Plant response rating, Galium [7, 16]: 95
- Galium plant response rating [7, 17]: 95
- Plant response rating, Galium [7, 18]: 95
- Plant response rating, Galium [7, 20]: 90
- Plant response rating, Galium [7, 21]: 90
- Plant response rating, Galium [7, 22]: 98
- Galium plant response rating ([7]; Preemergence, 250 g ai/ha, scale 0 to 100 (0 no effect, 100 complete control)): 100
- Galium plant response rating [7, 19]: 95
- Plant response rating, Ragweed [8, 16]: 75
- Ragweed plant response rating [8, 17]: 100
- Plant response rating, Ragweed [8, 18]: 100
- Plant response rating, Ragweed [8, 20]: 65
- Plant response rating, Ragweed [8, 21]: 80
- Plant response rating, Ragweed [8, 22]: 95
- Ragweed plant response rating [8, 19]: 100
- Plant response rating, Ryegrass, Italian [9, 16]: 90
- Ryegrass, Italian plant response rating [9, 17]: 95
- Plant response rating, Ryegrass, Italian [9, 18]: 95
- Plant response rating, Ryegrass, Italian [9, 20]: 90
- Plant response rating, Ryegrass, Italian [9, 21]: 95
- Plant response rating, Ryegrass, Italian [9, 22]: 95
- Ryegrass, Italian plant response rating [9, 19]: 95
- Plant response rating, Soybean (soybean (Glycine max); [16]): 10
- Soybean plant response rating (soybean (Glycine max); [17]): 30
- Plant response rating, Soybean (soybean (Glycine max); [18]): 50
- Plant response rating, Soybean (soybean (Glycine max); [21]): 0
- Plant response rating, Soybean (soybean (Glycine max); [22]): 55
- Soybean plant response rating (soybean (Glycine max); [19]): 60
